Assay results reported in patent US12703698B2, “Inhibitors of interleukin-1 receptor-associated kinases 1 and 4” (The University of Rochester, priority 2020, dated 2026).

Assays:
MDS-L cells = test: Colony formation of MDS-L cells in vitro; format: cell-based; conditions: for colony formation of MDS-L cells: FIGS. 7A-7C; for colony formation potential of MDS-L cells: FIGS. 6A-6B
Excerpt: FIGS. 6A and 6B show the effect of UR241-1 and UR241-2 on the colony formation potential of MDS-L cells in vitro.

THP-1 cells = test: Colony formation of THP-1 cells in vitro; format: cell-based, human; conditions: FIGS. 4A-4C
Excerpt: FIGS. 4A, 4B and 4C show the effect of MCC950 (reference), UR241-1, and UR241-2 on the colony formation potential of THP-1 cells in vitro.

murine MLL-AF9 leukemia = test: Colony forming activity in methylcellulose culture, MLL-AF9 leukemia; format: cell-based
[1] = tested on: IL1b signaling events in THP-1 cells; test: Western blot of IL1b signaling events in THP-1 cells; format: cell-based, human; conditions: THP-1 cells at 10 and 30 minutes; hIL-1β 10 ng/mL, UR241-2 4 μM, WB 30 μg/lane; FIG. 1E
Method: Whole cell lysates of THP1 treated with vehicle, hIL-1B (10 ng/mL), UR241-1 (10 μM) and UR241-2 (4 μM) for 10 minutes and 30 minutes. 30 μg proteins were electrophoresed and probed with phospho-/native p65, phospho-p38, pAKT, and GAPDH.

Row | SMILES | colony formation of MDS-L cells (MDS-L cells) | colony formation potential of THP-1 cells (THP-1 cells) | colony formation potential of MDS-L cells (MDS-L cells) | inhibition of colony forming activity (murine MLL-AF9 leukemia; UR241-2 4 uM with MCC950 100 nM, FIG. 1F) | inhibition of colony forming activity (murine MLL-AF9 leukemia; UR241-2 4 uM without MCC950, FIG. 1F) | inhibition of IL1b signaling events [1]
1 | CC(C)(O)c1coc(S(=O)(=O)NC(=O)Nc2c3c(cc4c2CCC4)CCC3)c1 [MCC950, reference compound] | inhibited colony formation of MDS-L cells in vitro, dose-dependently | suppressed the colonies formed by THP-1 cells dose-dependently | – | – | – | –
2 | CC[C@@H]1[C@H](F)C(=O)N[C@@H]1COc1nccc2cc(C(N)=O)c(OC)cc12 [PF06650833, reference compound] | inhibited colony formation of MDS-L cells in vitro, dose-dependently | – | – | – | – | –
3 | COc1cc(N2CCS(=O)(=O)CC2)ccc1NC(=O)c1cccc(-c2cc[nH]n2)c1 [UR241-1] | – | suppressed the colonies formed by THP-1 cells dose-dependently | suppressed the colonies formed by MDS-L cells dose dependently | – | – | –
4 | COc1cc(N2CCS(=O)(=O)CC2)ccc1NC(=O)c1cccc(-c2cc[nH]n2)n1 [UR241-2] | inhibited colony formation of MDS-L cells in vitro, dose-dependently | suppressed the colonies formed by THP-1 cells dose-dependently | suppressed the colonies formed by MDS-L cells dose dependently | inhibition of colony forming activity | inhibition of colony forming activity | inhibition
